According to patent US20250214978A1, “AT2R AGONIST” (WUHAN HUMANWELL INNOVATIVE DRUG RESEARCH AND DEVELOPMENT …, priority 2022, published 2025):
Read-outs that look alike come from different tables or passages of the source.

Legend:
[1] = Free plasma protein binding (PPB) assay, equilibrium dialysis; format: in vitro ADME; conditions: dialysis 6 hours at 37° C.
Experimental: The dried dialysis membrane was soaked in ultrapure water for 1 hour, then soaked in 20% ethanol for 20 minutes, and then rinsed with ultrapure water for 2 to 3 times. Finally, the dried dialysis membrane was soaked in ultrapure water for 20 minutes for later use. The frozen plasma was thawed in a water bath at 37° C. for about 20 minutes. pH value of the plasma was measured after thawing was complete, and was adjusted to 7.4 with 1% phosphoric acid solution or 0.1M sodium hydroxide solution. […] The pretreated dialysis membrane was assembled into the dialysis plate according to product instructions, and 100 μL of receiving solution (100 mM phosphate buffer solution plus 0.002% Tween 80) was added to one side of the permeable membrane in each dialysis well. 20 μL of each of the final solution of the test compound and the final solution of the control compound were taken in a 96-well sample plate, two duplicate samples were made, and T0 sample was obtained, which was stored in a −20° C. refrigerator. Another 100 μL of each of the above-mentioned final solutions were taken to the other side of the membrane in the dialysis device, two duplicate samples were made, and incubated at 37° C. with constant shaking for 6 hours. After 6 hours of incubation, 20 μL of each of the dialyzed receiving solution and the administered plasma were taken, two duplicate samples were made, and sample A and sample B were obtained. Corresponding blank plasma or receiving solution of corresponding volume were added to sample B and sample A, respectively, allowing the volume ratio of plasma to buffer in each sample well to be 1:1. 300 μL of sample-containing internal standard acetonitrile solution was added to all the sample wells. The mixture was mixed well, and centrifuged at 5,500×g for 10 minutes. 150 μL of corresponding ultrapure water was added to the corresponding sample wells of the 96-well sample plate. 150 μL of the supernatant was taken into the sample wells, and mixed well. Then, LC/MS/MS analysis was performed. The calculation formula of fu is: […]
where: CR: peak area ratio measured in the receiving chamber well CD: peak area ratio measured in the supply chamber well.

[2] = Bidirectional permeability study in CACO-2 cells; format: in vitro ADME; conditions: human, pH 7.4, Caco-2 monolayer, pH 7.40
Experimental: Caco-2 cells were inoculated onto polyethylene membrane (PET) in 96-well inserted plates at a rate of 1×10^5 cells/cm^2, and the medium was changed every 4 to 5 days until day 21 to 28, to form a fused cell monolayer. The transport buffer in the assay was HBSS and 10.0 mM HEPES, with a pH of 7.40±0.05. The test compounds were subjected to a bidirectional test at 2.00 μM in the presence and absence of GF120918 (10.0 μM). Digoxin was subjected to a bidirectional test at 10.0 μM in the presence and absence of GF120918 (10.0 μM), while Nadolol and Metoprolol were subjected to a test from direction A to direction B at 2.00 μM in the absence of GF120918 (10.0 μM). The above tests were performed in duplicate. The final concentration of DMSO was adjusted to be lower than 1%. The plate was incubated in a CO2 incubator at 37° C.±1° C. for 2 hours, and 5% CO2 was added under saturated humidity without shaking. All the samples, after being mixed with acetonitrile containing internal standard, were centrifuged at 3,200 g for 10 minutes. […] The concentrations of the test compounds and control compounds in the starting solution, the donor solution, and the acceptor solution were quantified by LC-MS/MS based on a peak area ratio of the analyte to the internal standard.
After the transport assay, the integrity of the Caco-2 cell monolayer was determined using Lucifer Yellow Exclusion Assay.

- fraction unbound at 6 h, 1 μM ([1]; dog, pH 7.4, Canine plasma, read-out: fu % Canine): 0.0141
- fraction unbound at 6 h, 1 μM ([1]; pH 7.4, Human plasma, read-out: fu % Human): 0.008
- fraction unbound at 6 h, 1 μM ([1]; pH 7.4, Mouse plasma, read-out: fu % Mouse): 0.0093
- fraction unbound at 6 h, 1 μM ([1]; pH 7.4, Rat plasma, read-out: fu % Rat): 0.0289
- Papp A→B at 2 h, 2 μM [2]: 3.13 ×10⁻⁶ cm/s
SMILES: COC(=O)NS(=O)(=O)c1sc(CC(C)C)c(C)c1-c1ccc(Cn2ccnc2Cl)cc1 [Compound I-34, Methyl ((3-(4-((2-chloro-1H-imidazol-1-yl)methyl)phenyl)-5-isobutyl-4-methylthiophen-2-yl)sulfonyl)carbamate]
